Data published in patent US20170281611A1, “QUINOLINES AND THEIR USE FOR TREATING ENDOPLASMIC RETICULUM STRESS-CAUSED DISEASES” (EIGER BIOPHARMACEUTICALS, INC., priority 2014, published 2017).

Columns and labels:
[1] = system: APP-PS1 mice; experiment: Alzheimer's disease model, Aβ deposition (Thioflavin S staining); format: in vivo, mouse; conditions: 10 mg/kg ip for 4 weeks, vs saline
Procedure: PS1/APP mice (PS1M146V and APPSWE) (Howlett et al., Brain Res. 2004, 1017, 130-136) were used. Age-matched NTg controls were on the same background strain (C57bl6/J9).
Mice were transcardially perfused with ice-cold PBS (3 mL) followed by 4% paraformaldehyde (5 mL). Brains were extracted and fixed overnight in 30% sucrose-cryoprotectant solution. Coronal hippocampal sections 40 μm thick were cut on a cryostat and collected in TBS (0.1 M Tris, 0.9% saline, pH 7.4).
Free-floating hippocampal sections were washed with TBS (4×3 min). The sections were soaked in 0.5% thioflavin S (in 50/50 ethyl alcohol/distilled water, Sigma-Aldrich) for 10 min, followed by 2×3 min washes with 50% ethyl alcohol. Sections were washed again with TBS (2×3 min), mounted with minimal drying, and coverslipped with anti-fade mounting medium PVA-DABCO for microscopy.
Confocal images of immunolabeled tissue were obtained using 4× and 10× objective lenses on the Olympus Fluoview confocal microscope. Density of amyloid plaques was quantified by averaging the percent area staining positive (thresholded above background staining, as determined by software parameters and experimenter confirmation) within the hippocampus and cortex from 3-5 sections from each experimental animal using MetaMorph Software (Molecular Devices). […]

[2] = Pharmacokinetics of compound A12 in Sprague Dawley rats; format: in vivo, rat; conditions: oral, 2 mg/kg P.O.
Procedure: Pharmacokinetics of a test compound, compound A12, was assessed in Sprague Dawley rats. The compound was formulated at 1 mg/mL in DMSO/Tween 80/water (10/10/80, vol/vol/vol) and dosed at 1 mg/kg intravenous (i.v.) or 2 mg/kg by oral gavage (P.O.) in triplicate. Blood was drawn at 5 min, 15 min, 30 min, 1 hr, 2 hrs, 4 hrs, 6 hrs, and 8 hrs into EDTA containing tubes and plasma was harvested by centrifugation. Plasma (25 μL) was treated with acetonitrile (125 μL) containing an internal standard. The sample was then centrifuged for 5 min at 4,000 rpm in a tabletop centrifuge and the filtrate was collected. The filtrate was injected onto a Thermo Betasil C18 HPLC column 5μ (50×2.1 mm). Mobile Phase A was water with 0.1% formic acid. Mobile Phase B was acetonitrile with 0.1% formic acid. Separation was achieved using a gradient of 90% A/10% B to 5% A/95% B over 7 min. An API Sciex 4000 equipped with a turbo ion spray source was used for all analytical measurements. A positive ion MRM method was developed. Peak areas of the product ion were measured against the peak areas of the internal standard. Data was fit using WinNonLin (Pharsight Corporation, Mountain View, Calif.).

Cc1ccc2cccc(NC(=O)c3ccc(OC(C)C)cc3)c2n1 [Compound A12, 4-Isopropoxy-N-(2-methylquinolin-8-yl)benzamide]
amyloid plaques stained with Thioflavin S [1]: reduced | T112 [2]: 1.17 h
